Key:
[1] = test system: lipid droplets in wild type MEF cells; experiment: Reduction of OA-induced lipid droplets in wild type MEF cells (BODIPY 493/503 staining); type: cell-based, mouse; conditions: MEF, unconjugated compound 5 μM
Experimental: (5) OA-BSA stock solution was prepared into OA-BSA working solution (50× final concentration, 200 μM), and 40 μl of OA-BSA working solution was added to each well to induce lipid droplets. For the non-OA induction group, 40 μl of 10% BSA solution was added to the control well, and the amount of BSA was the same as that of the experimental group.
Compounds were formulated into DMSO stock solutions. Stock compounds were diluted with DMSO into the indicated concentrations of working solutions prior to use in the treatment of cells. After induction of the lipid droplets with OA for the indicated time, the test compounds were added to the cells respectively. Control wells were replaced with the equal volume of DMSO. Unless otherwise stated, the compounds were diluted into 10× solutions using the culture medium and added to the culture medium for 24 hours of incubation. Cells were treated with compounds in a 37° C. incubator with 5% CO2.
(3) The original medium in the multi-well plates was removed, washed and the cells was fixed, 1 ml of the BODIPY solution prepared in (1) was added to each well, and stained for 15 minutes. The staining solution was aspirated and washed with 1×PBS.
(5) The coverslips laid in the multi-well plates were removed, and imaged with the Zeiss 880 confocal microscope after mounted, and analyzed the size and number of lipid droplets with ImageJ.
Wild type MEF cells were cultured in a DMEM culture medium containing 10% FBS. Cells were plated according to the method as described above (12 well plate was plated with aseptic treated slides). When cells grew to a confluence of 60-70%, lipid droplets were induced with OA for 30 h according to the method as described above.
At the time point of 6th hour after initiation of induction, the cells were treated (treated for 24 hours) with Compound 1A or Compound 2A (compound concentrations were 50 μM, 15.8 μM, 5 μM, 1.58 μM, 0.5 μM, 0.158 μM) according to the method as described above.

LC3B = LC3B (Homo sapiens, UniProt Q9GZQ8); experiment: OI-RD detection of affinity activity with LC3B; type: binding; design: Gly-Gly (two glycines added in place of the start Met); His8 (followed by TEV site) (N, cleaved yes); GST (from the pGEX-6P1 backbone) (N, cleaved yes); made in house; host or cells: Escherichia coli BL21(DE3)pLysS; conditions: LC3B 238 nM, read-out: Kd (nM), equilibrium dissociation constant of affinity reaction between the compound and LC3B detected by OI-RD
Experimental: Each compound was dot printed 3 copies. The compounds that not fixed on surface of the chips were washed, and the chips were sealed and cleaned. OI-RD microscope was used to scan the images. […] The chips were washed and scanned. OI-RD images before, during and after incubation with target protein were obtained. The signal change in real-time dynamic change image was analyzed, and the signal was collected once per 10 millisecond.

Q: How did the “lipid droplets (number and size)” value [1] turn out when `O=C1Nc2ccc(I)cc2C1=Cc1cc(Br)c(O)c(Br)c1` [Compound A1, 3-(3,5-dibromo-4-hydroxylbenzylidene)-5-iodoindolin-2-one, reference compound] was run?
A: Its value is “did not significantly decrease or become smaller”.

Q: What about the Kd (LC3B) of the same compound?
A: Its Kd is 468 nM.

— patent US12582720B2, “Compound for preventing or treating lipid metabolism-related diseases” (Fudan University, priority 2020, dated 2026)
